The values that follow come from patent publication US8148391B2 (Cephalon, Inc., priority 2006, dated 2012).

Structures are written as SMILES.

In assay [1] the target is T1, c-Met (cytoplasmic domain) (Homo sapiens, UniProt P08581).
T1 construct: 10 ng/mL c-Met (cytoplasmic domain, Invitrogen Corporation #PV3143); purchased Invitrogen Corporation PV3143
Description: c-Met Kinase Assay (same methods as for ALK, with modifications). The assay is classed as biochemical. Conditions: c-Met kinase inhibition, 1 μM ATP; read-out: cMet Activity. The procedure, abridged: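 IC50 values were fitted by variable-slope sigmoidal regression of percent inhibition against log compound concentration. Phosphorylation was read with Eu-N1 PT66 antibody after a 15 min, 37 °C reaction. The reaction was initiated with 10 ng/mL c-Met cytoplasmic domain on wells coated with 10 μg/mL PLC-γ in TBS.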

For assay [2], the target named is T2, baculovirus-expressed ALK (Homo sapiens, UniProt Q9UM73).
T2 construct: host or cells: baculovirus expression system
T2 sequence (Q9UM73 19-1620): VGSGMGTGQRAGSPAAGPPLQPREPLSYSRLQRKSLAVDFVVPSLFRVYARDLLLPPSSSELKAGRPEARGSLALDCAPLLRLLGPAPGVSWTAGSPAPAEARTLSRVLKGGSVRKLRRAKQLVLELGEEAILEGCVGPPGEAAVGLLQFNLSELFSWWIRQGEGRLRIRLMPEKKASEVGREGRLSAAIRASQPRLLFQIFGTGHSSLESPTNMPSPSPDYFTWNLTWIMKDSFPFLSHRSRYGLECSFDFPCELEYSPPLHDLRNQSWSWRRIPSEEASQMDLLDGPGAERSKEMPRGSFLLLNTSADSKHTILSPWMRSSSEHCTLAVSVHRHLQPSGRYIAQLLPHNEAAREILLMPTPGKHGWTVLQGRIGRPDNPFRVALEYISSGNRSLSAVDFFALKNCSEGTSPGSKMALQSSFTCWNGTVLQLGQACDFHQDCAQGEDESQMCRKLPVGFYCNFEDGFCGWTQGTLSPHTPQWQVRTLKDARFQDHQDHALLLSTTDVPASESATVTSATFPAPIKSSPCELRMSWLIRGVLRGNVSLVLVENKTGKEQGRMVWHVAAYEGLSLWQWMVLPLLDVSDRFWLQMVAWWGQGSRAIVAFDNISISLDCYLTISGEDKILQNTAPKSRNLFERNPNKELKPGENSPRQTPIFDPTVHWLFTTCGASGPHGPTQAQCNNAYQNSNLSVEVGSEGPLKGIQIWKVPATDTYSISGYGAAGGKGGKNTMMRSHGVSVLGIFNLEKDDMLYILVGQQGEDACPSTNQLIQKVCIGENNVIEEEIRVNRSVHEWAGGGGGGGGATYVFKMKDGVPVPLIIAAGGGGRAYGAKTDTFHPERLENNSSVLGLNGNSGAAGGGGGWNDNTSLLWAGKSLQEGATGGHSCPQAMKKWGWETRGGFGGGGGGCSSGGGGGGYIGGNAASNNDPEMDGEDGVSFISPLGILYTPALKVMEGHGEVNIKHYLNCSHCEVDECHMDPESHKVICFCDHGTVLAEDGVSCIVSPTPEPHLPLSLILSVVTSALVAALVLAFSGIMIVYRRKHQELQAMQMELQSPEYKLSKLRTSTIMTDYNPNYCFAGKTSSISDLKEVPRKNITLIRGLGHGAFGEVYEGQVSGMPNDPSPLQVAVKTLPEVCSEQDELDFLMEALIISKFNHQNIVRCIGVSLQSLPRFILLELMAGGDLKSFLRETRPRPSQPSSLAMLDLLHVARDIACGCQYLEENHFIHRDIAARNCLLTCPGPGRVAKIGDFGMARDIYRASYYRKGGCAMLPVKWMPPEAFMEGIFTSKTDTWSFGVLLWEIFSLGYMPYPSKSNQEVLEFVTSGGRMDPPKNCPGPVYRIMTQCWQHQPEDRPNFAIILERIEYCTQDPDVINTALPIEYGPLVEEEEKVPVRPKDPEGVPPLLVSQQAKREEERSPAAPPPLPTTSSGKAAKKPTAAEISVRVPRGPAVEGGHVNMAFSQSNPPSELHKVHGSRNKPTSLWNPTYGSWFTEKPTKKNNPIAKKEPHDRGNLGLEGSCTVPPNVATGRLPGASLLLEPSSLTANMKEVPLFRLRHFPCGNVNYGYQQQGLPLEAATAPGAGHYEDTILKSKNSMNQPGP
Description: ALK Kinase Assay (ELISA-type, time-resolved fluorescence). The class given is biochemical. Conditions: ALK kinase inhibition, 1 μM ATP; read-out: ALK Activity. Summed up:
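Wells were coated with phospholipase C-γ at 10 μg/mL in Tris-buffered saline. Adding 30 ng/ml enzyme started the reaction, which ran at 37° C for 15 minutes before Eu-N1 PT66 antibody detection. Percent inhibition versus log10 concentration gave IC50 by variable-slope fit.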

T1 sequence (P08581 956-1390 limits assumed): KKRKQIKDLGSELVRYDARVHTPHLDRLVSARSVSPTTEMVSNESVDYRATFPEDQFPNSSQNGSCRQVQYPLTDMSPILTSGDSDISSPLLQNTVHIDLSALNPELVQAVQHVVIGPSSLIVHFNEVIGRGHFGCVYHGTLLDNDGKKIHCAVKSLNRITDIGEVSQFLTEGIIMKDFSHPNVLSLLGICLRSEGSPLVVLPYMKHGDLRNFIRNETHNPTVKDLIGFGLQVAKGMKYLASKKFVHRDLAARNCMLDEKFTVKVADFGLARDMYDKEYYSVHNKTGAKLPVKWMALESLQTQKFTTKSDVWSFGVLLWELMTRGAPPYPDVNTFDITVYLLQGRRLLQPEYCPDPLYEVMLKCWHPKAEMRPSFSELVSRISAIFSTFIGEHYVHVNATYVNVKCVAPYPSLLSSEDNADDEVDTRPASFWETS

For `CNC(=O)c1cccc(F)c1Nc1nc(Nc2ccc3c(c2)N(CCN2CCCC2)CCCC3(C)C)ncc1Cl` [Example 1605, 2-{5-Chloro-2-[5,5-dimethyl-1-(2-pyrrolidin-1-yl-ethyl)-2,3,4,5-tetrahydro-1H-benzo[b]azepin-8-ylamino]-pyrimidin-4-ylamino}-3-fluoro-N-methyl-benzamide], the IC50 in assay [1] is 100 to 1000 nM; in assay [2] it was less than 100 nM.

As to `CC1(C)CCCN(CCN2CCCC2)c2cc(Nc3ncc(Cl)c(N[C@H]4[C@@H](C(N)=O)[C@@H]5C=C[C@H]4C5)n3)ccc21` [Example 1606, (1S,2S,3R,4R)-3-{5-Chloro-2-[5,5-dimethyl-1-(2-pyrrolidin-1-yl-ethyl)-2,3,4,5-tetrahydro-1H-benzo[b]azepin-8-ylamino]-pyrimidin-4-ylamino}-bicyclo[2.2.1]hept-5-ene-2-carboxylic acid amide], the IC50 in assay [1] is 1000 to 10000 nM; in assay [2], less than 100 nM.

For `CC1(C)CCCN(C(=O)CN2CCCC2)c2cc(Nc3ncc(Cl)c(N[C@H]4[C@@H](C(N)=O)[C@@H]5C=C[C@H]4C5)n3)ccc21` [Example 1607, (1S,2S,3R,4R)-3-{5-Chloro-2-[5,5-dimethyl-1-(2-pyrrolidin-1-yl-acetyl)-2,3,4,5-tetrahydro-1H-benzo[b]azepin-8-ylamino]-pyrimidin-4-ylamino}-bicyclo[2.2.1]hept-5-ene-2-carboxylic acid amide], the IC50 is 100 to 1000 nM in assay [1] and less than 100 nM in assay [2].

Turning to `CNC(=O)c1cc(F)cc(F)c1Nc1nc(Nc2ccc3c(c2)N(C(C)=O)CCCC3(C)C)ncc1Cl` [Example 1608, 2-[2-(1-Acetyl-5,5-dimethyl-2,3,4,5-tetrahydro-1H-benzo[b]azepin-8-ylamino)-5-chloro-pyrimidin-4-ylamino]-3,5-difluoro-N-methyl-benzamide], the IC50 in assay [1] is less than 100 nM; in assay [2] it was 100 to 1000 nM.

With `C#CCNC(=O)c1cccc(F)c1Nc1nc(Nc2ccc3c(c2)N(CCN2CCCC2)CCCC3(C)C)ncc1Cl` [Example 1609, 2-{5-Chloro-2-[5,5-dimethyl-1-(2-pyrrolidin-1-yl-ethyl)-2,3,4,5-tetrahydro-1H-benzo[b]azepin-8-ylamino]-pyrimidin-4-ylamino}-3-fluoro-N-prop-2-ynyl-benzamide], the IC50 in assay [1] was 100 to 1000 nM; in assay [2] it was less than 100 nM.

Regarding `COc1cc(N2CCOCC2)ccc1Nc1nc(Nc2ccc3c(c2)N(CCN2CCCC2)CCCC3(C)C)ncc1Cl` [Example 1610, 5-Chloro-N*2*-[5,5-dimethyl-1-(2-pyrrolidin-1-yl-ethyl)-2,3,4,5-tetrahydro-1H-benzo[b]azepin-8-yl]-N*4*-(2-methoxy-4-morpholin-4-yl-phenyl)-pyrimidine-2,4-diamine], the IC50 in assay [1] was 1000 to 10000 nM; in assay [2], less than 100 nM.

On to `CNC(=O)c1cccc(F)c1Nc1nc(Nc2ccc3c(c2)NCCCC3(C)C)ncc1Cl` [Example 1611, 2-[5-Chloro-2-(5,5-dimethyl-2,3,4,5-tetrahydro-1H-benzo[b]azepin-8-ylamino)-pyrimidin-4-ylamino]-3-fluoro-N-methyl-benzamide], for which the figures for the IC50 in assay [1] and in assay [2] were less than 100 nM and 100 to 1000 nM, respectively.

Consider `C#CCNC(=O)c1cccc(F)c1Nc1nc(Nc2ccc3c(c2)NCCCC3(C)C)ncc1Cl` [Example 1612, 2-[5-Chloro-2-(5,5-dimethyl-2,3,4,5-tetrahydro-1H-benzo[b]azepin-8-ylamino)-pyrimidin-4-ylamino]-3-fluoro-N-prop-2-ynyl-benzamide], for which the IC50 in assay [1] and in assay [2] was 100 to 1000 nM in each case.

Turning to `CC1(C)CCCNc2cc(Nc3ncc(Cl)c(N[C@H]4[C@@H](C(N)=O)[C@@H]5C=C[C@H]4C5)n3)ccc21` [Example 1613, (1S,2S,3R,4R)-3-[5-Chloro-2-(5,5-dimethyl-2,3,4,5-tetrahydro-1H-benzo[b]azepin-8-ylamino)-pyrimidin-4-ylamino]-bicyclo[2.2.1]hept-5-ene-2-carboxylic acid amide], the IC50 in assay [1] was 100 to 1000 nM; in assay [2], less than 100 nM.
